From patent US8785470B2, “Heterocyclic compounds and uses thereof” (Infinity Pharmaceuticals, Inc., priority 2011, dated 2014)

Experiments:
PI3Kβ = target: T1, PI3Kβ (Homo sapiens, UniProt P42338); test: PI3-Kinase HTRF assay, PI3Kβ; type: biochemical; details: bins Greater than 10 μM and Greater than 1 μM to 10 μM; 10 μM ATP, PIP2 at 10 μM
T1 construct: purchased Millipore Corporation 14-603-K
Text: (§1) A PI3-Kinase HTRF® assay kit (cat No. 33-016) purchased from Millipore Corporation was used to screen compounds provided herein. This assay used specific, high affinity binding of the GRPI pleckstrin homology (PH) domain to PIP3, the product of a Class 1A or 1B PI3 Kinase acting on its physiological substrate PIP2. During the detection phase of the assay, a complex was generated between the GST-tagged PH domain and biotinylated short chain PIP3. The biotinylated PIP3 and the GST-tagged PH domain recruited fluorophores (Streptavidin-Allophycocyanin and Europium-labeled anti-GST respectively) to form the fluorescence resonance energy transfer (FRET) architecture, generating a stable time-resolved FRET signal. The FRET complex was disrupted in a competitive manner by non-biotinylated PIP3, a product formed in the PI3 Kinase assay.
(§2) PI3 Kinase α, β, γ and δ activity was assayed using the PI3 Kinase HTRF® assay kit (catalogue No. 33-016) purchased from Millipore Corporation. Purified recombinant PI3Kα (catalogue No. 14-602-K), PI3Kβ (catalogue No. 14-603-K), PI3Kγ (catalogue No. 14-558-K) and PI3Kδ (catalogue No. 14-604-K) were obtained from Millipore Corporation. Purified recombinant PI3K enzyme was used to catalyze the phosphorylation of phosphatidylinositol 4,5-bisphosphate (PIP2 at 10 μM) to phosphatidylinositol 3,4,5-trisphosphate (PIP3) in the presence of 10 μM ATP. The assay was carried out in 384-well format and detected using a Perkin Elmer EnVision Xcite Multilabel Reader. Emission ratios were converted into percent inhibitions and imported into GraphPad Prism software. The concentration necessary to achieve inhibition of enzyme activity by 50% (IC50) was calculated using concentrations ranging from 20 μM to 0.1 nM (12-point curve). IC50 values were determined using a nonlinear regression model available in GraphPad Prism 5. […]

Balb/c splenic B cells = test: B cell activation and proliferation assay; type: cell-based; details: Mus musculus, column bins 1 μM to 100 nM (given as 100-1000) and Less than 100 nM, read-out: B cell proliferation EC50
Experimental: The ability of one or more subject compounds to inhibit B cell activation and proliferation is determined according to standard procedures known in the art. For example, an in vitro cellular proliferation assay is established that measures the metabolic activity of live cells. The assay is performed in a 96 well microtiter plate using Alamar Blue reduction. Balb/c splenic B cells are purified over a Ficoll-Paque™ PLUS gradient followed by magnetic cell separation using a MACS B cell Isolation Kit (Miletenyi). Cells are plated in 90 μl at 50.000 cells/well in B Cell Media (RPMI+10% FBS+Penn/Strep+50 μME5 mM HEPES). A compound provided herein is diluted in B Cell Media and added in a 10 μl volume. Plates are incubated for 30 min at 37° C. and 5% CO2 (0.2% DMSO final concentration). A 50 μl B cell stimulation cocktail is then added containing either 10 μg/ml LPS or 5 μg/ml F(ab′)2 Donkey anti-mouse IgM plus 2 ng/ml recombinant mouse IL4 in B Cell Media. Plates are incubated for 72 hours at 37° C. and 5% CO2. A volume of 15 μL of Alamar Blue reagent is added to each well and plates are incubated for 5 hours at 37° C. and 5% CO2. Alamar Blue fluoresce is read at 560Ex/590Em, and IC50 or EC50 values are calculated using GraphPad Prism 5.

PI3Kα = target: T2, PI3Kα (Homo sapiens, UniProt P42336); test: PI3-Kinase HTRF assay, PI3Kα; type: biochemical; details: bins Greater than 10 μM and Greater than 1 μM to 10 μM; 10 μM ATP, PIP2 at 10 μM; read-out: IC50 P13Kα
T2 construct: purchased Millipore Corporation 14-602-K
T2 sequence (P42336 whole entry): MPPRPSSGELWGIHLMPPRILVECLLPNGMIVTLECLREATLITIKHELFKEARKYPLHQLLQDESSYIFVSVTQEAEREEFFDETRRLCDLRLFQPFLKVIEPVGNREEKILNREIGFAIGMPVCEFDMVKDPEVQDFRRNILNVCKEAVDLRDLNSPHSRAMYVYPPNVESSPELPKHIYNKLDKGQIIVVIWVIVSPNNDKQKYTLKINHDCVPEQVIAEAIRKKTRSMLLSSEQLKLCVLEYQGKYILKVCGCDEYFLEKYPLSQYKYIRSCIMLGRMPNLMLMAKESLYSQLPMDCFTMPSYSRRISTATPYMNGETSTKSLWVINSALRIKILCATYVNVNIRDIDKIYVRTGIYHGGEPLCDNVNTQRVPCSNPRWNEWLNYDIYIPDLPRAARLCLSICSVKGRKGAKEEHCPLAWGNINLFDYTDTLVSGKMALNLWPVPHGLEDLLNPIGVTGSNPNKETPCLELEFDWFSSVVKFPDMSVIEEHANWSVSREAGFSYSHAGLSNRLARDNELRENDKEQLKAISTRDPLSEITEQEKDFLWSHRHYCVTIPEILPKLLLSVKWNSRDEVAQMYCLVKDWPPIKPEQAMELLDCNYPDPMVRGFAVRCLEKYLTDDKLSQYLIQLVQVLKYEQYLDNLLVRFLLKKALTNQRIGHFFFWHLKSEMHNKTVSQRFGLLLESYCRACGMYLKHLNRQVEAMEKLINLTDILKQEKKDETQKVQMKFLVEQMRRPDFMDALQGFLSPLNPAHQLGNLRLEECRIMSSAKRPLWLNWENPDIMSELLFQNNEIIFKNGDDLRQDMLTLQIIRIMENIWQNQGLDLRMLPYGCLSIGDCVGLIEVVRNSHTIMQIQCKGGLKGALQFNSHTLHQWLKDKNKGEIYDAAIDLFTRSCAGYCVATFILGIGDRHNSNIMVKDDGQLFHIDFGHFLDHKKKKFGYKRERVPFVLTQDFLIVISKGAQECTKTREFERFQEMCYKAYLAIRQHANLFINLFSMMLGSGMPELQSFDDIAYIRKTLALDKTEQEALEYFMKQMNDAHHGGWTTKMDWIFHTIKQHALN
T2 sequence (P27986 whole entry partner): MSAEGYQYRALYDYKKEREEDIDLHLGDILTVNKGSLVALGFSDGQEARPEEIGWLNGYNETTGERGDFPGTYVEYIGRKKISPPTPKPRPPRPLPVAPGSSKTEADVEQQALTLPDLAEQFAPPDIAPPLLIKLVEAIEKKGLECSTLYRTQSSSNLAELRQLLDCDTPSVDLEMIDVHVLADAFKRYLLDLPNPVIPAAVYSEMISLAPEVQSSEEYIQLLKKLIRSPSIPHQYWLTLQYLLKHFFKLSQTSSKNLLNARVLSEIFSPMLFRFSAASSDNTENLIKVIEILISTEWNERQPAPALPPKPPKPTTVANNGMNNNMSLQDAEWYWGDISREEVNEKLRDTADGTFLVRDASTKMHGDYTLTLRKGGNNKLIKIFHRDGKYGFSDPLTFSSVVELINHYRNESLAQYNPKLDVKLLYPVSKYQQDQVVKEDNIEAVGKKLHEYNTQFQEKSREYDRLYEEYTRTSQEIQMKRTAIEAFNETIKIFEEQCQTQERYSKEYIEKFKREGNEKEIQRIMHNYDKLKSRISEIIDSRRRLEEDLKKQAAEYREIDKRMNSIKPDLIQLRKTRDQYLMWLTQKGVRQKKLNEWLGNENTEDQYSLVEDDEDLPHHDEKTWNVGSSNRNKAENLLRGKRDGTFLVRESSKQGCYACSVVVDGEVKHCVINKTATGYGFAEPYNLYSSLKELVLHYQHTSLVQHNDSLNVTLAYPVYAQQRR
Text: as §1, §2

T1 sequence (P42338 whole entry): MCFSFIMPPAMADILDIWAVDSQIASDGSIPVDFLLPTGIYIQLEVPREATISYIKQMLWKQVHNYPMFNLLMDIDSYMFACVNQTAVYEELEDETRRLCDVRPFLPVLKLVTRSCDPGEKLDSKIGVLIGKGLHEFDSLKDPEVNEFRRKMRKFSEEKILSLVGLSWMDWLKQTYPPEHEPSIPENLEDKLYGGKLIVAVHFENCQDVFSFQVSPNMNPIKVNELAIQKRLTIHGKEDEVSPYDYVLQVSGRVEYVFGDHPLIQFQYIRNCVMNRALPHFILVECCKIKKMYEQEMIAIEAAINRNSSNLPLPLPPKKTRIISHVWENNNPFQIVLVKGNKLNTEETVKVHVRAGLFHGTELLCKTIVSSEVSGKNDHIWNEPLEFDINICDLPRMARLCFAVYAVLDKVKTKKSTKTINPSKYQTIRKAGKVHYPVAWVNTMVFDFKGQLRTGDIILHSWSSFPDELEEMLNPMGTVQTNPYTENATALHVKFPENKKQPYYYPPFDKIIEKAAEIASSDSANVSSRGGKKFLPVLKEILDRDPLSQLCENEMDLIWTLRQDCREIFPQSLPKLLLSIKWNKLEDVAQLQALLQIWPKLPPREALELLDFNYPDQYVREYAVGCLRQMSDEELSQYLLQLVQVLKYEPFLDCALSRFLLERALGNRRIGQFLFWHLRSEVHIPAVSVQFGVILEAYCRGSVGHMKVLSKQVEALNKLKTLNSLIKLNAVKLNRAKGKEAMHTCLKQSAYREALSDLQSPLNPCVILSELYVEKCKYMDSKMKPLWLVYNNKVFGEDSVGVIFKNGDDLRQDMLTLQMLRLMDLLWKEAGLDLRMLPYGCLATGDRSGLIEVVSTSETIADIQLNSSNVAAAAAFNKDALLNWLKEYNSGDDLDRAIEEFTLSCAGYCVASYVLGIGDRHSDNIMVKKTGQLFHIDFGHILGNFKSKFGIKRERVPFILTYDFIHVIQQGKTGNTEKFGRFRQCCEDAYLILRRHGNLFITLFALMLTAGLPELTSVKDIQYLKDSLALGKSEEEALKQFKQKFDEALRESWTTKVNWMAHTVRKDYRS
T1 sequence (P27986 whole entry partner): as the sequence (P27986 whole entry partner) above

Compound | IC50 (PI3Kβ) | EC50 (Balb/c splenic B cells) | IC50 (PI3Kα)
COc1cncc(-c2cccc3cc([C@H](C)Nc4nc(N)ncc4C(N)=O)n(-c4ccccc4)c(=O)c23)c1 [Compound 10, 2-amino-4-((S)-1-(8-(5-methoxypyridin-3-yl)-1-oxo-2-phenyl-1,2-dihydroisoquinolin-3-yl)ethylamino)pyrimidine-5-carboxamide] | 1 to 10 µM | < 0.1 µM | –
Cc1cccc2cc([C@H](C)Nc3nc(N)ncc3C(F)(F)F)n(-c3cccc(F)c3)c(=O)c12 [Compound 16] | 1 to 10 µM | < 0.1 µM | –
C[C@H](Nc1nc(N)ncc1C#N)c1cc2cccc(-c3cnc4ccccc4c3)c2c(=O)n1-c1cccc(F)c1 [Compound 23] | 1 to 10 µM | < 0.1 µM | –
C[C@H](Nc1nc(N)ncc1C#N)c1cc2cccc(-c3cccc(Cl)c3)c2c(=O)n1-c1ccccc1 [Compound 34] | 1 to 10 µM | – | –
COc1cccc(-c2cccc3cc([C@H](C)Nc4nc(N)ncc4C#N)n(-c4ccccc4)c(=O)c23)c1 [Compound 36] | 1 to 10 µM | – | –
C[C@H](Nc1nc(N)ncc1C#N)c1cc2cccc(-c3ccc(F)cc3)c2c(=O)n1-c1ccccc1 [Compound 37] | 1 to 10 µM | – | –
C[C@H](Nc1nc(N)ncc1C#N)c1cc2cccc(-c3cccc(N(C)C)c3)c2c(=O)n1-c1ccccc1 [Compound 40] | 1 to 10 µM | – | –
Cc1cccc(-c2cccc3cc([C@H](C)Nc4nc(N)ncc4C#N)n(-c4ccccc4)c(=O)c23)c1 [Compound 46] | 1 to 10 µM | – | –
CC(C)Oc1cncc(-c2cccc3cc([C@H](C)Nc4nc(N)ncc4C#N)n(-c4ccccc4)c(=O)c23)c1 [Compound 53] | 1 to 10 µM | – | –
C#Cc1cnc(N)nc1N[C@@H](C)c1cc2cccc(Cl)c2c(=O)n1-c1ccccc1 [Compound 91] | – | < 0.1 µM | 1 to 10 µM
COc1ccc(-c2cccc3cc([C@H](C)Nc4nc(N)ncc4C#N)n(C4CC4)c(=O)c23)cn1 [Compound 108] | – | < 0.1 µM | 1 to 10 µM
Cc1csc(-c2cnc(N)nc2N[C@@H](C)c2cc3cccc(Cl)c3c(=O)n2-c2ccccc2)n1 [Compound 136] | – | < 0.1 µM | 1 to 10 µM
C[C@H](Nc1nc(N)ncc1C#N)c1cc2cccc(O)c2c(=O)n1-c1ccccc1 [Compound 145] | 1 to 10 µM | – | –
C[C@H](Nc1nc(N)ncc1C#N)c1cc2cccc(-c3cncc(OC(F)F)c3)c2c(=O)n1-c1ccccc1 [Compound 152] | – | < 0.1 µM | 1 to 10 µM
C[C@H](Nc1nc(N)ncc1C#N)c1cc2cccc(-c3ccc(O)nc3)c2c(=O)n1-c1ccccc1 [Compound 156] | – | < 0.1 µM | 1 to 10 µM
C[C@H](Nc1nc(N)ncc1C#N)c1cc2cccc(-c3cccc(S(C)(=O)=O)c3)c2c(=O)n1-c1ccccc1 [Compound 164] | – | < 0.1 µM | 1 to 10 µM
C[C@H](Nc1nc(N)ncc1-c1ccncc1)c1cc2cccc(Cl)c2c(=O)n1-c1ccccc1 [Compound 168] | 1 to 10 µM | – | –
COc1cc(-c2cccc3cc([C@H](C)Nc4nc(N)ncc4-c4ccncc4)n(-c4ccccc4)c(=O)c23)ccn1 [Compound 169] | – | < 0.1 µM | 1 to 10 µM
COc1cc(-c2cccc3cc([C@H](C)Nc4nc(N)ncc4[N+](=O)[O-])n(-c4ccccc4)c(=O)c23)ccn1 [Compound 177] | – | < 0.1 µM | 1 to 10 µM
CNc1cc(-c2cccc3cc([C@H](C)Nc4nc(N)ncc4C#N)n(-c4ccccc4)c(=O)c23)ccn1 [Compound 185] | – | < 0.1 µM | 1 to 10 µM
C[C@H](Nc1nc(N)ncc1C(=O)N(C)C)c1cc2cccc(Cl)c2c(=O)n1-c1ccccc1 [Compound 199] | – | < 0.1 µM | 1 to 10 µM
C[C@H](Nc1nc(N)ncc1C(=O)N(C)C)c1cc2cccc(-c3cnn(C)c3)c2c(=O)n1-c1ccccc1 [Compound 203] | – | < 0.1 µM | 1 to 10 µM
COc1ccc(-c2cccc3cc([C@H](C)Nc4nc(N)ncc4C#N)n(-c4ccccc4)c(=O)c23)nc1 [Compound 206] | – | < 0.1 µM | 1 to 10 µM
C[C@H](Nc1nc(N)ncc1C#N)c1cc2cccc(Cl)c2c(=O)n1-c1ccc(OC(F)(F)F)cc1 [Compound 210] | 1 to 10 µM | – | –

Compound | IC50 (PI3Kβ) | EC50 (Balb/c splenic B cells) | IC50 (PI3Kα)
COc1ccc(-n2c([C@H](C)Nc3nc(N)ncc3C#N)cc3cccc(Cl)c3c2=O)cc1 [Compound 214] | 1 to 10 µM | – | –
C[C@H](Nc1nc(N)ncc1C#N)c1cc2cccc(Cl)c2c(=O)n1-c1ccc(Cl)cc1 [Compound 217] | – | < 0.1 µM | 1 to 10 µM
CC#Cc1cccc2cc([C@H](C)Nc3nc(N)ncc3C#N)n(-c3ccccc3)c(=O)c12 [Compound 222] | – | < 0.1 µM | 1 to 10 µM
Cc1cc(-c2cccc3cc([C@H](C)Nc4nc(N)ncc4C#N)n(-c4ccccc4)c(=O)c23)cn(C)c1=O [Compound 231] | – | < 0.1 µM | 1 to 10 µM
C[C@H](Nc1nc(N)ncc1C#N)c1cc2cccc(-c3ccc(=O)n(C4CCOCC4)c3)c2c(=O)n1-c1ccccc1 [Compound 235] | 1 to 10 µM | – | –
C[C@H](Nc1nc(N)ncc1C#N)c1cc2cccc(Cl)c2c(=O)n1-c1cscn1 [Compound 249] | – | < 0.1 µM | 1 to 10 µM
C[C@H](Nc1nc(N)ncc1C#N)c1cc2cccc(Cl)c2c(=O)n1-c1c(F)cc(F)cc1F [Compound 258] | 1 to 10 µM | – | –
C[C@H](Nc1nc(N)ncc1C#N)c1cc2cccc(Cl)c2c(=O)n1-c1ccc2c(c1)OCO2 [Compound 261] | 1 to 10 µM | – | –
C[C@H](Nc1nc(N)ncc1C#N)c1cc2cccc(Cl)c2c(=O)n1-c1cccc(F)c1F [Compound 282] | 1 to 10 µM | – | –
C[C@H](Nc1nc(N)ncc1C#N)c1cc2cccc(Cl)c2c(=O)n1Cc1ccccc1 [Compound 303] | 1 to 10 µM | – | –
CCn1c([C@H](C)Nc2nc(N)ncc2C#N)cc2cccc(Cl)c2c1=O [Compound 309] | – | < 0.1 µM | 1 to 10 µM
CC(C)n1c([C@H](C)Nc2nc(N)ncc2C#N)cc2cccc(Cl)c2c1=O [Compound 325] | – | < 0.1 µM | 1 to 10 µM
C[C@H](Nc1nc(N)ncc1C#N)c1cc2cccc(Cl)c2c(=O)n1-c1ccon1 [Compound 332] | – | < 0.1 µM | 1 to 10 µM
C[C@H](Nc1nc(N)ncc1-c1cscn1)c1cc2cccc(Cl)c2c(=O)n1-c1ccccc1 [Compound 360] | – | < 0.1 µM | 1 to 10 µM
C[C@H](Nc1nc(N)ncc1-c1cncs1)c1cc2cccc(Cl)c2c(=O)n1-c1ccccc1 [Compound 361] | – | < 0.1 µM | 1 to 10 µM
C[C@H](Nc1nc(N)ncc1-c1ncco1)c1cc2cccc(Cl)c2c(=O)n1-c1ccccc1 [Compound 365] | – | < 0.1 µM | 1 to 10 µM
Cc1nc(-c2cnc(N)nc2N[C@@H](C)c2cc3cccc(Cl)c3c(=O)n2-c2ccccc2)sc1C [Compound 366] | 1 to 10 µM | – | –
Cc1cnc(-c2cnc(N)nc2N[C@@H](C)c2cc3cccc(Cl)c3c(=O)n2-c2ccccc2)s1 [Compound 368] | 1 to 10 µM | – | –
CCOc1nc(-c2cnc(N)nc2N[C@@H](C)c2cc3cccc(Cl)c3c(=O)n2-c2ccccc2)cs1 [Compound 369] | – | < 0.1 µM | 1 to 10 µM
CCOc1ncc(-c2cnc(N)nc2N[C@@H](C)c2cc3cccc(Cl)c3c(=O)n2-c2ccccc2)s1 [Compound 371] | – | < 0.1 µM | 1 to 10 µM
C[C@H](Nc1nc(N)ncc1-c1ccsc1)c1cc2cccc(Cl)c2c(=O)n1-c1ccccc1 [Compound 373] | 1 to 10 µM | – | –
C[C@H](Nc1nc(N)ncc1-c1ccccn1)c1cc2cccc(Cl)c2c(=O)n1-c1ccccc1 [Compound 375] | 1 to 10 µM | – | –
C[C@H](Nc1nc(N)ncc1-c1cnn(C)c1)c1cc2cccc(Cl)c2c(=O)n1-c1ccccc1 [Compound 376] | 1 to 10 µM | – | –
C[C@H](Nc1nc(N)ncc1-c1ccc(O)cc1)c1cc2cccc(Cl)c2c(=O)n1-c1ccccc1 [Compound 436] | 1 to 10 µM | – | –
